For one experiment, the target named is NaChBac (Halalkalibacterium halodurans (Bacillus halodurans), UniProt Q9KCR8). The experiment is described as follows: cell-based. It counts as cell-based. As to conditions: for inhibition at 7 µM: HEK293, read-out: inhibition of WT NaChBac peak currents.
A further experiment deals with human NaV1.7 (Homo sapiens, UniProt Q15858). The experiment is described as follows: cell-based. The class given is cell-based.
The next experiment relates to F227A NaChBac. It counts as cell-based, Bacillus halodurans.
The next experiment has as its system F224A NaChBac. The class given is cell-based, Bacillus halodurans. As to conditions: for effect on F224A NaChBac channel currents: 7 µM.

In general, inhibition refers to the drop in the measured response relative to a control, in per cent. The IC50 is the concentration at which inhibition is half-maximal.

Where two headings read alike, the source gives them in different places.

Sequence of human NaV1.7 (Q15858 whole entry): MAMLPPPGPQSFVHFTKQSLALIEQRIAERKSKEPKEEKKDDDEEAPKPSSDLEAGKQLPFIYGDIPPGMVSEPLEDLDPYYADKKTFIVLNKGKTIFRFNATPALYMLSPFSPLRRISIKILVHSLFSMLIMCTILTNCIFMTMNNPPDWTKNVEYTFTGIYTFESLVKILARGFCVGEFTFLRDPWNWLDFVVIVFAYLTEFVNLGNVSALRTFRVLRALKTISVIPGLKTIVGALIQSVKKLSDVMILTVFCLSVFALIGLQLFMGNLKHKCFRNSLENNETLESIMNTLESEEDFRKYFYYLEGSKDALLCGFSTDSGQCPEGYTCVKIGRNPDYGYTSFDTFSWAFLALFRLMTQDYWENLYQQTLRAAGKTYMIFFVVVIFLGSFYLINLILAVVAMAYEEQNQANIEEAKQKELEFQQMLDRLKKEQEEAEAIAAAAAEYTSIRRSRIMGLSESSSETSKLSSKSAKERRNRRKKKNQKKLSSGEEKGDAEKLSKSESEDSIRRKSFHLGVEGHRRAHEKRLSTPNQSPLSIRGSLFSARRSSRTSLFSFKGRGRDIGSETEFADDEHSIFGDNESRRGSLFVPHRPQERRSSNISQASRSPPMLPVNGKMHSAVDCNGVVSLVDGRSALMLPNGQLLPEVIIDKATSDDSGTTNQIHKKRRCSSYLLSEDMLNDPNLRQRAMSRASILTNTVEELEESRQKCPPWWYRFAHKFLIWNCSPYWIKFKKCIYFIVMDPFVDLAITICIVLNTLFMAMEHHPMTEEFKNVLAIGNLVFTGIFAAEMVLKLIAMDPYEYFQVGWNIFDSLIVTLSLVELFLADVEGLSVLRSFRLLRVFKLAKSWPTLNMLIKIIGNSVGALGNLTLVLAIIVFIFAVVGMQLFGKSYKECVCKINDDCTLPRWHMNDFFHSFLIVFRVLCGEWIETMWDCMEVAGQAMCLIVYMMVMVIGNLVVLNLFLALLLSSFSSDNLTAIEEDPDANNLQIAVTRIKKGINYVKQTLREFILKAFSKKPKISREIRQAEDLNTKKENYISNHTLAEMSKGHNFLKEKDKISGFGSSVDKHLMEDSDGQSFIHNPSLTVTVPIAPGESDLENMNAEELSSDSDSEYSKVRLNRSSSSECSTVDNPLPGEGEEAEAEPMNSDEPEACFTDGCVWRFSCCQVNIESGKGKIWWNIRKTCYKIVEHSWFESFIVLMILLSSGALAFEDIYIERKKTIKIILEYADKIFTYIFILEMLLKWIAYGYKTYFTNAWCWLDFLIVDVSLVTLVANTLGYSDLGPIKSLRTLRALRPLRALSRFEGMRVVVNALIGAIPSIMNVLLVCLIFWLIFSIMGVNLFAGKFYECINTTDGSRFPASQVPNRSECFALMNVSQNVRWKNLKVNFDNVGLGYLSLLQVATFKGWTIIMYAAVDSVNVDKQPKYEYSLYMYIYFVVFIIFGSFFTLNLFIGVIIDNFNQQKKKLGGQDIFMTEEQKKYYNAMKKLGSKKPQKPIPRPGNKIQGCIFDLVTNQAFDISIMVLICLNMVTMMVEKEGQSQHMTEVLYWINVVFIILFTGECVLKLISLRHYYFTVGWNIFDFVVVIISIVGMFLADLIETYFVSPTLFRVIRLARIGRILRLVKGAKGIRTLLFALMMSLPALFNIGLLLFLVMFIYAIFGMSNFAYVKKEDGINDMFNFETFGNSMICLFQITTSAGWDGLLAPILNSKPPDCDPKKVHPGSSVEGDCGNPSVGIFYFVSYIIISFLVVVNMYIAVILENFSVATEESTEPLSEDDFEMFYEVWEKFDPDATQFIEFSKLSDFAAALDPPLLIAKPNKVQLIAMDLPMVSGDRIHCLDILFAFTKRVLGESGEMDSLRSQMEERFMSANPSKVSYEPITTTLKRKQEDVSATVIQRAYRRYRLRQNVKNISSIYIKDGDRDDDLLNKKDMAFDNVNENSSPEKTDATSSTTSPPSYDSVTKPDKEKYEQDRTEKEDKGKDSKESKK
Sequence of NaChBac (Q9KCR8 1-274): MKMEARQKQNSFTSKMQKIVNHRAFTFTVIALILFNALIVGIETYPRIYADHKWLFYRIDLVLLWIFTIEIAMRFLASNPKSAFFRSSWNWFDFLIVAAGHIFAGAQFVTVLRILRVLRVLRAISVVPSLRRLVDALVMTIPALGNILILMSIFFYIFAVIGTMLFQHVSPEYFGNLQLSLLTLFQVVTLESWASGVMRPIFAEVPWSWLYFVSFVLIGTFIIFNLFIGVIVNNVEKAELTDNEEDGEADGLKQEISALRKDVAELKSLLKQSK

In the case of GSMTx-4, the “% of block in NaChBac” value on NaChBac is -5.1±3.0%.

Take QX-222: on NaChBac, the “% of block in NaChBac” value amounted to 15.3±2.7%.

ProTx-II: at NaChBac, the “% of block in NaChBac” value came out at 7.7±3.3% and the “effect on NaChBac channel currents” value is listed as “no effect”.

`Cc1cccc(C)c1OCC(C)N` (stereo not shown) [Mexiletine]: the “% of block in NaChBac” value on NaChBac (hek 293 cells) came to 74.2±1.8%.

On to `Nc1c(Br)cc(Br)cc1CN[C@H]1CC[C@H](O)CC1` [Ambroxol], for which, on human NaV1.7, the “G–V slope factor k[n], NaV1.7, after compound” value is given as 6.7 ± 0.2 and the “effect on NaV1.7 channel currents” value is listed as “robust inhibition”. Besides, at NaChBac, the “G–V slope factor k[n], NaChBac, after compound” value (“G–V slope factor k[n], NaChBac” for short) is 5.7 ± 0.6 and the “effect on NaChBac channel currents” value is listed as “robust inhibition”. Besides, the “% of block in NaChBac” value at NaChBac (hek 293 cells) is 93.6±3.8%.

Take `NC(=O)N1c2ccccc2CC(=O)c2ccccc21` [oxcarbazepine]: the “% of block in NaChBac” value at NaChBac (hek 293 cells) amounted to 18.2±2.5%.

`NC1=N[C@H](O)[C@H]2[C@H]3O[C@]4(O)O[C@@H]([C@@H](O)[C@@]2(N1)[C@@H]4O)[C@]3(O)CO` [ttx, tetrodotoxin]: on NaChBac, the “% of block in NaChBac” value was determined as 0.5±3.6% and the “effect on NaChBac channel currents” value is listed as “did not significantly alter currents”.

In the case of `CC[N+](CC)(CC)CC(=O)Nc1c(C)cccc1C` [QX-314], the “% of block in NaChBac” value on NaChBac (hek 293 cells) was determined as 16.2±2.6%.

Take `Cc1cccc(C)c1NC(=O)CC12CCCN1CCC2` [Pilsicaineide]: the “% of block in NaChBac” value on NaChBac came out at 50.5±2.7%.

Take ProTx-I: the “% of block in NaChBac” value on NaChBac is listed as -2.0±3.0%.

For `CCN(CC)CC(=O)Nc1c(C)cccc1C` [Lidocaine], the “lidocaine block of F227A NaChBac channels versus WT” value in the experiment with F227A NaChBac is listed as “no change in block”. Besides, the “G–V slope factor k[n], NaV1.7, after compound” value at human NaV1.7 is 7.8 ± 0.2. In addition, in the experiment on F224A NaChBac, the “lidocaine block of F224A NaChBac channels versus WT” value is listed as “decreased but still robust block”. For the same compound, the “G–V slope factor k[n], NaChBac” value at NaChBac was 4.8 ± 0.4. Also, the “% of block in NaChBac” value at NaChBac (hek 293 cells) is listed as 74.1±2.3%.

Turning to `COc1ccc(C(=O)O[C@H]2CC[C@@]3(C)[C@@H]4CC[C@H]5[C@]6(O)C[C@H](O)[C@@]7(O)[C@@H](CN8C[C@@H](C)CC[C@H]8[C@@]7(C)O)[C@]6(O)C[C@@]53O[C@]24O)cc1OC` [Veratridine], in the experiment with F227A NaChBac (7 µM), the “inhibition of F227A NaChBac peak currents” value stood at 65.1 ± 1.7% and the “ΔV1/2 of G–V curve, F227A NaChBac” value came to 20.1 ± 2.3 mV. The “effect on F224A NaChBac channel currents” value in the experiment on F224A NaChBac was “minimal or no block”. Besides, at NaChBac, the “G–V slope factor k[n], NaChBac” value is reported as 10.3 ± 0.3; the “Hill slope, NaChBac dose-response” value came out at 0.3; the “effect on NaChBac channel currents” value is on record as “significantly blocked peak inward Na^+ current”. For the same compound, on NaChBac (7 µM), the “ΔV1/2 of G–V curve, WT NaChBac” value amounted to 7.7 ± 1.8 mV and the inhibition at 7 µM was 55.6 ± 2%. Also, the “% of block in NaChBac” value at NaChBac (hek 293 cells) was 65.6±3.2%. Further, the IC50 on NaChBac (read-out: IC50 for NaChBac) was 8.1 µM.

`CCN1C[C@]2(COC)[C@H](O)C[C@H](OC)[C@@]34[C@@H]5C[C@@]6(O)[C@H](OC(=O)c7ccccc7)[C@@H]5[C@@](OC(C)=O)([C@@H]([C@H](OC)[C@H]23)[C@@H]14)[C@@H](O)[C@@H]6OC` [Aconitine]: in the experiment with F227A NaChBac (7 µM), the “effect on F227A NaChBac channel currents” value is “reduced effect”. Also, on human NaV1.7, the “G–V slope factor k[n], NaV1.7, after compound” value is 6.7 ± 0.2; the “Hill slope, NaV1.7 dose-response” value came out at 1.6; the midpoint of inhibition, the IC50, lay at 7.4 µM. For the same compound, the “block of NaV1.7 channel” value at human NaV1.7 (7 µM) was ~ 50%. In the experiment with F224A NaChBac, the “effect on F224A NaChBac channel currents” value is “no effect”. Besides, at NaChBac, the “G–V slope factor k[n], NaChBac” value came out at 5.0 ± 0.2; the “Hill slope, NaChBac dose-response” value came to 1.0; the IC50 turned out to be 1.3 µM; the “effect on NaChBac channel currents” value is given as “significantly blocked peak inward Na^+ current”. In addition, the “block of NaChBac channel” value at NaChBac (2 µM) is reported as ~ 50%. On NaChBac (7 µM), the inhibition at 7 µM was around 80%.

In the case of `CCCCN1CCCCC1C(=O)Nc1c(C)cccc1C` (stereo not shown) [Bupivacaine], the “% of block in NaChBac” value at NaChBac (hek 293 cells) was 46.6±2.9%.

Regarding `COc1ccc(CCN(C)CCCOc2nsc(-c3ccccc3)n2)cc1OC` [kc12291], the “% of block in NaChBac” value on NaChBac (hek 293 cells) is on record as 76.3±1.1%.

On to `COc1cc(NC(=O)c2ccc(-c3ccc(Cl)cc3)o2)cc(OC)c1` [A-803467], for which, on NaChBac, the “% of block in NaChBac” value was -6.3±4.1% and the “effect on NaChBac channel currents” value is recorded as “no effects”.

On to `Cc1ccc(C(=O)C(C)CN2CCCCC2)cc1` (stereo not shown) [Tolperisone], for which the “% of block in NaChBac” value on NaChBac (hek 293 cells) came out at 86.2±2.5%.

Consider `COc1ccccc1OCC(O)CN1CCN(CC(=O)Nc2c(C)cccc2C)CC1` (stereo not shown) [Ranolazine], for which, on NaChBac (hek 293 cells), the “% of block in NaChBac” value is recorded as 42.5±4.3%.

As for `Cc1cccc(C)c1NC(=O)C1CCCCN1C` (stereo not shown) [Mepivacaine], on NaChBac (hek 293 cells), the “% of block in NaChBac” value worked out at 67.7±2.5%.

In the case of `C[C@H](NCc1ccc(OCc2ccccc2F)cc1)C(N)=O` [Ralfinamide], on NaChBac (hek 293 cells), the “% of block in NaChBac” value is 97.7±3.0%.

Huwentoxin-IV: the “% of block in NaChBac” value at NaChBac is given as -6.7±2.9%.

Source of the values: article PMC7329812 (Scientific Reports, 2020).
